From PMC4339887, “Selective Sirt2 inhibition by ligand-induced rearrangement of the active site” (Nature Communications, 2015)
“Also recorded” adds a separate entry of the source.

Tests used:
[1] = tested on: HeLa cells; experiment: cell cycle analysis, propidium iodide flow cytometry; assay type: cell-based; details: treated as for BubR1
Procedure: (§1) reader (BMG Polarstar, Oex 390 nm, Oem 460 nm). The amount of inhibition was determined with respect to the mixture with only DMSO.
Immunocytochemistry equipment and settings. The signal of Alexa 546 and DAPI of the same region were acquired with constant illumination parameters as grayscale 8-bit 600 dpi tiff files (1600u 1200 pixels). Alexa 546 was acquired after 639.1 ms with a gamma factor of 0.65 without multiplying. The gain was set to 1. DAPI-stained images were acquired after about 20 ms with the same parameters as the one for Alexa 546 image acquisition. The temperature in the microscope room was kept at RT. Representative regions of each samples were processed with Adobe Photoshop CS2 to generate images in RGB mode by copying the appropriate original greyscale images to the blue (nuclei, DAPI) and the red (acetylated D-tubulin signal, Alexa 546) channel, respectively. As adjustment, a minimal background subtraction was applied on all images during processing in the same manner. The resolution was changed from 600 dpi (source images) to 450 dpi without resampling (Fig. 7 of the main article). LUT (CLUT) of grayscale images of the acetylated D-tubulin signal and of the DAPI signal are shown in Supplementary Fig. 8.
Cell Cycle Analysis. […] Stained cells were subjected to flow cytometric analysis using a FACSCaliber (BD Biosciences) and analyzed by FlowJo software (Tree Star, Inc.).

[2] = tested on: α-tubulin acetylation in HeLa cells; experiment: tubulin acetylation, western blot; assay type: cell-based; details: various concentrations, 5 h
From the text: Cell samples were then separated using SDS–PAGE (12.5% (w/v) polyacrylamide), transferred to an activated nitrocellulose membrane (Bio-Rad), blocked with non-fat dry milk (Roth, 5% (w/v), TBS, 0.1% (v/v) Tween 20) and probed with an anti-acetyl-α-tubulin antibody (1:1,000, Sigma-Aldrich, T6793) and an anti-GAPDH antibody (1:2,000–1:5,000, Sigma-Aldrich, G9545) as a loading control (Fusion SL, peqlab). An uncropped blot is shown in Supplementary Fig. 8.

[3] = molecular target: T1, KDAC1 (Homo sapiens, UniProt Q13547); experiment: in vitro KDAC1/6 assay, substrate ZMAL; assay type: biochemical
T1 construct: purchased Enzo Life Sciences
Procedure: 5 times), Fmoc deprotection and amino acid coupling were repeated until the last amino acid was coupled and the Fmoc group was removed. The resin was washed with dichloromethane (DCM, 3 min, 5 times), methanol (5 min, 3 times) and DCM (3 min, 5 times). […]
acid (TFA) at RT (1 h, 2 times). Cleaved peptide was precipitated with cold diethylether, filtrated and dried. The peptide was purified by semi-preparative HPLC (Merck-Hitachi High Speed LC system) using a Merck Hibar LiChrosorb RP-8 column (250–25 mm, 7 μm). For separation a linear gradient from 20–50% (vol/vol) acetonitrile (ACN) with 0.1% (vol/vol) TFA in 60 min was applied (flow-rate: 8 ml min-1). […]
high-throughput fluorescence-based assay using the substrate ZMAL (Z-Lys(Acetyl)- […]
A solution that contained DMSO was used a negative
The reaction was started through the addition of KDAC1 (Enzo Life Sciences, 10 μL) or […]
initial state conditions the substrate conversion was adjusted to 10–30% prior to inhibition tests. The reaction was stopped by the addition of a solution containing trypsin and TSA […]
Then fluorescence intensity of the released fluorophore of the deacetylated lysine derivative was measured in a microplate […]
as §1
Immunocytochemistry equipment and settings. […]

T1 sequence (Q13547 whole entry): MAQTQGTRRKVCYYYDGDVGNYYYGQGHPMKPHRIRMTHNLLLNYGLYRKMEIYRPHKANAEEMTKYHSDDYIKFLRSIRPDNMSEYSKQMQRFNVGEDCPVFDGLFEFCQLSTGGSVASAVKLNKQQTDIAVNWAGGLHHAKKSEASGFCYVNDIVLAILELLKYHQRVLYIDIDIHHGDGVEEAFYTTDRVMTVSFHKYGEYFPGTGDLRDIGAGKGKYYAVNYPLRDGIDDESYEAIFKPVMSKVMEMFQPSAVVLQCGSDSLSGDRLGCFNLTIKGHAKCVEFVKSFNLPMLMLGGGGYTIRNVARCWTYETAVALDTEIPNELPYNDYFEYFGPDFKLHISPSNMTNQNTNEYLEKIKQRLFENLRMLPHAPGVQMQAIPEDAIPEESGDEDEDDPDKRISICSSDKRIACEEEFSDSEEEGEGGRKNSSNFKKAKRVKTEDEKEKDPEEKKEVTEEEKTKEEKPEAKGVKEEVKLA

Cc1cc(C)nc(SCC(=O)Nc2ncc(Cc3cccc4ccccc34)s2)n1 [SirReal2]
cell cycle distribution [1]: did not alter | level of α-tubulin acetylation [2]: tubulin hyperacetylation; also recorded: significant increase | activity of KDAC1 [3]: does not affect
